Reference: patent publication US20210317134A1, “UBIQUITIN-SPECIFIC-PROCESSING PROTEASE 7 (USP7) MODULATORS AND USES THEREOF” (RAPT THERAPEUTICS, INC., priority 2019, published 2021)

Biological target: USP7 (Homo sapiens, UniProt Q93009)
Experiment: USP7 inhibitory potency (Table 1)
Assay type: biochemical

USP7, sequence (Q93009 whole entry): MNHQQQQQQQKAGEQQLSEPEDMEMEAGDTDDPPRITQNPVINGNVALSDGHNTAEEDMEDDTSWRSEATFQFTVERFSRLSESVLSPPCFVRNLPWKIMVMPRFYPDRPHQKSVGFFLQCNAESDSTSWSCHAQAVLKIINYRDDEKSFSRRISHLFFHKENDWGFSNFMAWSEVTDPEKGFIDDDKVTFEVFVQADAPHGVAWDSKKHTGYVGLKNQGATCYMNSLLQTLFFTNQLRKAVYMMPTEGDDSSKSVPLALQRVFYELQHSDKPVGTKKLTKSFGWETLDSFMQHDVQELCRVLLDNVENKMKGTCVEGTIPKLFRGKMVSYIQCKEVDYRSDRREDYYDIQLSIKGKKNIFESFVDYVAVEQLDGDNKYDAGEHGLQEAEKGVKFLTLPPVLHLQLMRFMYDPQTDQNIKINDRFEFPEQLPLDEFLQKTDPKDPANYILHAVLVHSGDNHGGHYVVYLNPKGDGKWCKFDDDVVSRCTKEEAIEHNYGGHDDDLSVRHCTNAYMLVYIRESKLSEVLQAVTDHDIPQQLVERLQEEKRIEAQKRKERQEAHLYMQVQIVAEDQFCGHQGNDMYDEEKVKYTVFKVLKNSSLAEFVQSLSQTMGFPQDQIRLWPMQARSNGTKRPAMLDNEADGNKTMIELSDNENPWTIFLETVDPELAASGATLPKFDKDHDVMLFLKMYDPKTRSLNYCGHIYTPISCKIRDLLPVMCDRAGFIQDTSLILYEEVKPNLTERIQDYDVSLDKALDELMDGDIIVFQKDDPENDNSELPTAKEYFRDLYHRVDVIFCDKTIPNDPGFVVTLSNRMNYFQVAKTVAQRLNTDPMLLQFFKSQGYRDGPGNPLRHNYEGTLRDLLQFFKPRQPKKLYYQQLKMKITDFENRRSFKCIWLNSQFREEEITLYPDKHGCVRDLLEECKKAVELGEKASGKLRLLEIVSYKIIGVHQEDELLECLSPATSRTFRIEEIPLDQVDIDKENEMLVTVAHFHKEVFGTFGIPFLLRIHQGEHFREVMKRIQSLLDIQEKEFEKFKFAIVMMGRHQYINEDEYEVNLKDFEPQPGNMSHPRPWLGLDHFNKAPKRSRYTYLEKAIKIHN

IC50, < 1 µM:
O=C(C1Cc2cc(Cl)cc(-c3ccnc4[nH]ccc34)c2O1)N1CCC(O)(c2cccnc2)CC1 (stereo not drawn) [(5-chloro-7-(1H-pyrrolo[2,3-b]pyridin-4-yl)-2,3-dihydrobenzofuran-2-yl)(4-hydroxy-4-(pyridin-3-yl)piperidin-1-yl)methanone]
O=C(C1Cc2cc(Cl)cc(-c3ccnc4[nH]ccc34)c2O1)N1CCC(O)(c2ccncc2)CC1 (stereo not drawn) [(5-chloro-7-(1H-pyrrolo[2,3-b]pyridin-4-yl)-2,3-dihydrobenzofuran-2-yl)(4-hydroxy-4-(pyridin-4-yl)piperidin-1-yl)methanone]
O=C(C1Cc2cc(Cl)cc(-c3ccnc4[nH]ccc34)c2O1)N1CCNCC1 (stereo not drawn) [(5-chloro-7-(1H-pyrrolo[2,3-b]pyridin-4-yl)-2,3-dihydrobenzofuran-2-yl)(piperazin-1-yl)methanone]
O=C(C1Cc2cc(Cl)cc(-c3ccnc4[nH]c(CO)cc34)c2O1)N1CCNCC1 (stereo not drawn) [(5-chloro-7-(2-(hydroxymethyl)-1H-pyrrolo[2,3-b]pyridin-4-yl)-2,3-dihydrobenzofuran-2-yl)(piperazin-1-yl)methanone]
O=C(C1Cc2cc(Cl)cc(-c3ccnc4c3CCCC4)c2O1)N1CCNCC1 (stereo not drawn) [(5-chloro-7-(5,6,7,8-tetrahydroquinolin-4-yl)-2,3-dihydrobenzofuran-2-yl)(piperazin-1-yl)methanone]

IC50, 1 to 10 µM:
CN1CCC(CN2CCN(C(=O)C3Cc4cc(Cl)cc(-c5ccnc6[nH]ccc56)c4O3)CC2)CC1 (stereo not drawn) [(5-chloro-7-(1H-pyrrolo[2,3-b]pyridin-4-yl)-2,3-dihydrobenzofuran-2-yl)(4-((1-methylpiperidin-4-yl)methyl)piperazin-1-yl)methanone]
O=C(C1Cc2cc(Cl)cc(-c3ccnc4[nH]ccc34)c2O1)N1CCN([C@H]2CC[C@H](c3ccccc3)CC2)CC1 (stereo partly drawn) [(5-chloro-7-(1H-pyrrolo[2,3-b]pyridin-4-yl)-2,3-dihydrobenzofuran-2-yl)(4-((1s,4r)-4-phenylcyclohexyl)piperazin-1-yl)methanone]
O=C(C1Cc2cc(Cl)cc(-c3ccnc4[nH]ccc34)c2O1)N1CCN([C@H]2CC[C@@H](c3ccccc3)CC2)CC1 (stereo partly drawn) [(5-chloro-7-(1H-pyrrolo[2,3-b]pyridin-4-yl)-2,3-dihydrobenzofuran-2-yl)(4-((1s,4s)-4-phenylcyclohexyl)piperazin-1-yl)methanone]
CN(C)C1CCN(C(=O)C2Cc3cc(Cl)cc(-c4ccnc5[nH]ccc45)c3O2)CC1 (stereo not drawn) [(5-chloro-7-(1H-pyrrolo[2,3-b]pyridin-4-yl)-2,3-dihydrobenzofuran-2-yl)(4-(dimethylamino)piperidin-1-yl)methanone]
O=C(C1Cc2cc(Cl)cc(-c3ccnc4[nH]ccc34)c2O1)N1CCN(c2cccnc2)CC1 (stereo not drawn) [(5-chloro-7-(1H-pyrrolo[2,3-b]pyridin-4-yl)-2,3-dihydrobenzofuran-2-yl)(4-(pyridin-3-yl)piperazin-1-yl)methanone]
O=C(C1Cc2cc(Cl)cc(-c3ccnc4[nH]ccc34)c2O1)N1CCN(c2ccncc2)CC1 (stereo not drawn) [(5-chloro-7-(1H-pyrrolo[2,3-b]pyridin-4-yl)-2,3-dihydrobenzofuran-2-yl)(4-(pyridin-4-yl)piperazin-1-yl)methanone]
O=C(C1Cc2cc(Cl)cc(-c3ccnc4[nH]ccc34)c2O1)N1CCC(c2ccncc2)CC1 (stereo not drawn) [(5-chloro-7-(1H-pyrrolo[2,3-b]pyridin-4-yl)-2,3-dihydrobenzofuran-2-yl)(4-(pyridin-4-yl)piperidin-1-yl)methanone]
O=C(C1Cc2cc(Cl)cc(-c3ccnc4[nH]ccc34)c2O1)N1CCN(c2ccncn2)CC1 (stereo not drawn) [(5-chloro-7-(1H-pyrrolo[2,3-b]pyridin-4-yl)-2,3-dihydrobenzofuran-2-yl)(4-(pyrimidin-4-yl)piperazin-1-yl)methanone]
O=C(C1Cc2cc(Cl)cc(-c3ccnc4[nH]ccc34)c2O1)N1CCC(O)(c2ccccn2)CC1 (stereo not drawn) [(5-chloro-7-(1H-pyrrolo[2,3-b]pyridin-4-yl)-2,3-dihydrobenzofuran-2-yl)(4-hydroxy-4-(pyridin-2-yl)piperidin-1-yl)methanone]
O=C(C1Cc2cc(Cl)cc(-c3ccnc4[nH]ccc34)c2O1)N1CCC(O)(c2cccc3ncccc23)CC1 (stereo not drawn) [(5-chloro-7-(1H-pyrrolo[2,3-b]pyridin-4-yl)-2,3-dihydrobenzofuran-2-yl)(4-hydroxy-4-(quinolin-5-yl)piperidin-1-yl)methanone]
O=C(C1Cc2cc(Cl)cc(-c3ccnc4[nH]ccc34)c2O1)N1CCC(O)(c2ccccc2)CC1 (stereo not drawn) [(5-chloro-7-(1H-pyrrolo[2,3-b]pyridin-4-yl)-2,3-dihydrobenzofuran-2-yl)(4-hydroxy-4-phenylpiperidin-1-yl)methanone]
O=C(C1Cc2cc(Cl)cc(-c3ccnc4[nH]ccc34)c2O1)N1CCC(N2CCOCC2)CC1 (stereo not drawn) [(5-chloro-7-(1H-pyrrolo[2,3-b]pyridin-4-yl)-2,3-dihydrobenzofuran-2-yl)(4-morpholinopiperidin-1-yl)methanone]
O=C(C1Cc2cc(Cl)cc(-c3ccnc4[nH]ccc34)c2O1)N1CCN[C@@H](CO)C1 (stereo partly drawn) [(5-chloro-7-(1H-pyrrolo[2,3-b]pyridin-4-yl)-2,3-dihydrobenzofuran-2-yl)((R)-3-(hydroxymethyl)piperazin-1-yl)methanone]
C[C@@H]1CN(C(=O)C2Cc3cc(Cl)cc(-c4ccnc5[nH]ccc45)c3O2)CCN1 (stereo partly drawn) [(5-chloro-7-(1H-pyrrolo[2,3-b]pyridin-4-yl)-2,3-dihydrobenzofuran-2-yl)((R)-3-methylpiperazin-1-yl)methanone]
C[C@H]1CNCCN1C(=O)C1Cc2cc(Cl)cc(-c3ccnc4[nH]ccc34)c2O1 (stereo partly drawn) [(5-chloro-7-(1H-pyrrolo[2,3-b]pyridin-4-yl)-2,3-dihydrobenzofuran-2-yl)((S)-2-methylpiperazin-1-yl)methanone]
O=C(C1Cc2cc(Cl)cc(-c3ccnc4[nH]ccc34)c2O1)N1CCN[C@H](CO)C1 (stereo partly drawn) [(5-chloro-7-(1H-pyrrolo[2,3-b]pyridin-4-yl)-2,3-dihydrobenzofuran-2-yl)((S)-3-(hydroxymethyl)piperazin-1-yl)methanone]
C[C@H]1CN(C(=O)C2Cc3cc(Cl)cc(-c4ccnc5[nH]ccc45)c3O2)CCN1 (stereo partly drawn) [(5-chloro-7-(1H-pyrrolo[2,3-b]pyridin-4-yl)-2,3-dihydrobenzofuran-2-yl)((S)-3-methylpiperazin-1-yl)methanone]
O=C(C1CCNCC1)C1Cc2cc(Cl)cc(-c3ccnc4[nH]ccc34)c2O1 (stereo not drawn) [(5-chloro-7-(1H-pyrrolo[2,3-b]pyridin-4-yl)-2,3-dihydrobenzofuran-2-yl)(piperidin-4-yl)methanone]
O=C(C1Cc2cc(Cl)cc(-c3ccnc4cc[nH]c34)c2O1)N1CCNCC1 (stereo not drawn) [(5-chloro-7-(1H-pyrrolo[3,2-b]pyridin-7-yl)-2,3-dihydrobenzofuran-2-yl)(piperazin-1-yl)methanone]
O=C(C1Cc2cc(Cl)cc(-c3ccnc(NCCO)c3)c2O1)N1CCNCC1 (stereo not drawn) [(5-chloro-7-(2-((2-hydroxyethyl)amino)pyridin-4-yl)-2,3-dihydrobenzofuran-2-yl)(piperazin-1-yl)methanone]
C[C@H](O)c1cc2c(-c3cc(Cl)cc4c3OC(C(=O)N3CCNCC3)C4)ccnc2[nH]1 (stereo partly drawn) [(5-chloro-7-(2-((S)-1-hydroxyethyl)-1H-pyrrolo[2,3-b]pyridin-4-yl)-2,3-dihydrobenzofuran-2-yl)(piperazin-1-yl)methanone]
O=C(C1Cc2cc(Cl)cc(-c3ccnc4[nH]c(Cc5cc6ccccc6cn5)cc34)c2O1)N1CCNCC1 (stereo not drawn) [(5-chloro-7-(2-(isoquinolin-3-ylmethyl)-1H-pyrrolo[2,3-b]pyridin-4-yl)-2,3-dihydrobenzofuran-2-yl)(piperazin-1-yl)methanone]
O=C(C1Cc2cc(Cl)cc(-c3ccnc4[nH]c(Cc5cccnc5)cc34)c2O1)N1CCNCC1 (stereo not drawn) [(5-chloro-7-(2-(pyridin-3-ylmethyl)-1H-pyrrolo[2,3-b]pyridin-4-yl)-2,3-dihydrobenzofuran-2-yl)(piperazin-1-yl)methanone]
O=C(C1Cc2cc(Cl)cc(-c3ccnc(O)c3)c2O1)N1CCNCC1 (stereo not drawn) [(5-chloro-7-(2-hydroxypyridin-4-yl)-2,3-dihydrobenzofuran-2-yl)(piperazin-1-yl)methanone]
Cc1c[nH]c2nccc(-c3cc(Cl)cc4c3OC(C(=O)N3CCNCC3)C4)c12 (stereo not drawn) [(5-chloro-7-(3-methyl-1H-pyrrolo[2,3-b]pyridin-4-yl)-2,3-dihydrobenzofuran-2-yl)(piperazin-1-yl)methanone]

IC50, 10 to 30 µM:
O=C(C1Cc2cc(Cl)cc(-c3ccnc4[nH]ccc34)c2O1)N1CCN(C2CCNCC2)CC1 (stereo not drawn) [(5-chloro-7-(1H-pyrrolo[2,3-b]pyridin-4-yl)-2,3-dihydrobenzofuran-2-yl)(4-(piperidin-4-yl)piperazin-1-yl)methanone]
O=C(C1Cc2cc(Cl)cc(-c3ccnc4[nH]ccc34)c2O1)N1CCC(O)(Cc2cccnc2)CC1 (stereo not drawn) [(5-chloro-7-(1H-pyrrolo[2,3-b]pyridin-4-yl)-2,3-dihydrobenzofuran-2-yl)(4-hydroxy-4-(pyridin-3-ylmethyl)piperidin-1-yl)methanone]
C[C@@H]1CNCCN1C(=O)C1Cc2cc(Cl)cc(-c3ccnc4[nH]ccc34)c2O1 (stereo partly drawn) [(5-chloro-7-(1H-pyrrolo[2,3-b]pyridin-4-yl)-2,3-dihydrobenzofuran-2-yl)((R)-2-methylpiperazin-1-yl)methanone]
O=C(C1Cc2cc(Cl)cc(-c3ccnc(Nc4ccccc4)c3)c2O1)N1CCNCC1 (stereo not drawn) [(5-chloro-7-(2-(phenylamino)pyridin-4-yl)-2,3-dihydrobenzofuran-2-yl)(piperazin-1-yl)methanone]
O=C(C1Cc2cc(Cl)cc(-c3ccnc4[nH]c(C5CC5)cc34)c2O1)N1CCNCC1 (stereo not drawn) [(5-chloro-7-(2-cyclopropyl-1H-pyrrolo[2,3-b]pyridin-4-yl)-2,3-dihydrobenzofuran-2-yl)(piperazin-1-yl)methanone]
O=C(C1Cc2cc(Cl)cc(-c3ccnc4[nH]c(-c5ccccc5)cc34)c2O1)N1CCNCC1 (stereo not drawn) [(5-chloro-7-(2-phenyl-1H-pyrrolo[2,3-b]pyridin-4-yl)-2,3-dihydrobenzofuran-2-yl)(piperazin-1-yl)methanone]
